Read-outs that look alike come from different tables or passages of the source. Marks after values point to notes of the source that are not given here.
Tests used:
[1] = cited from earlier work; for share represented by hydroxytyrosol sulfates: ref Kotronoulas et al. 39
[2] = Plasma pharmacokinetics (noncompartmental analysis) after single oral administration of Arbequina table olives; assay type: in vivo, Sprague-Dawley rats; details: for AUC0–∞ / Cmax/D / AUC0–∞/D / AUCt/D / Cl/F·fm (apparent clearance of metabolite) / MRT0–∞ / Vdarea/F·fm (apparent volume of distribution of metabolite, terminal phase) / Vss/F·fm (apparent steady-state volume of distribution of metabolite) / t1/2λz (apparent elimination half-life) / λz (apparent elimination rate constant) / AUCt / Cmax: geometric mean (95% CI); for Cmax/D: D = dose of hydroxytyrosol in nmol; for AUC0–∞/D / AUCt/D: D in nmol; for Tmax: median (min, max); for AUCt: time zero up to 8 h; for Cmax / percentage of the AUC of each compound divided by the AUC of the sum of all of them: plasma; for Cmax: read-out: Cmax; for half-life (t1/2λz) / mean residence time (MRT0–∞): oral table olives; for percentage of the AUC of each compound divided by the AUC of the sum of all of them: both doses (similar ratios between doses)
Protocol: The experiments were performed using Sprague–Dawley rats (n = 13) randomly divided into two groups, the 30 olives group (n = 6) that received the dose of 3.85 g/kg and the 60 olives group (n = 7), which was given the dose of 7.70 g/kg. The freshly prepared homogeneous suspensions were given to overnight fasted rats by oral gavage (18-gauge × 76 mm, ref FFSS-186-76, Instech Laboratories, Inc., Plymouth Meeting, PA). The volume of administration was 10 mL/kg. After the single administration of Arbequina table olives, blood was obtained at 30, 60, 90, 120, 240, 360, and 480 min from each animal. Samples were withdrawn from the lateral saphenous vein and placed into Microvette CB 300 K2 EDTA-K2 (Sarstedt, Granollers, Spain) coated tubes.[31] At each time point, 0.40 mL of blood was collected, meaning that a maximum of 2.4 mL was obtained from each animal. […] Blood corresponding to 480 min was taken by a cardiac puncture with the animal under terminal anesthesia. Plasma was immediately obtained by centrifugation at 1500g at 4 °C for 15 min (Centrifuge Megafuge 1.0R, Heraeus, Boadilla, Spain) and kept at −20 °C until analysis.
Hydroxytyrosol and its metabolites in plasma were determined by liquid–liquid extraction followed by LC-MS/MS analysis as previously described.[11] Briefly, 200 μL of plasma was mixed with 10 μL of freshly prepared 10% ascorbic acid followed by 10 μL of 0.5% acetic acid and 10 μL of 2-(3-hydroxyphenyl) ethanol (10 μM, I.S.). Then, 2 mL of ethyl acetate was added to the samples that were vigorously mixed in a vortex (5 min), placed into an ultrasonic bath (10 min), and centrifuged at 1500g at 4 °C (15 min) (Centrifuge Megafuge 1.0R). A second extraction of the pellet with 2 mL of ethyl acetate was carried out. Subsequently, the two pooled supernatants were evaporated to dryness, reconstituted with 100 μL of 80% methanol, placed into amber vials, and immediately analyzed by LC-MS/MS.
The plasmatic concentrations were calculated by the interpolation of the peak area ratio of hydroxytyrosol versus I.S. on a calibration curve. Calibration standards were constructed with blank plasma obtained by cardiac puncture from overnight fasted rats that had never received either table olives or hydroxytyrosol. […] Results were expressed in nmol per liter of plasma (nmol/L). The method was validated following the EMA guidelines[33] at six different concentrations ranging from 0 to 250 nmol/L analyzed on three different days.
Individual PK of hydroxytyrosol and its metabolites were estimated from the plasma concentrations versus time profiles of each animal, through a noncompartmental analysis (NCA) with Phoenix-64 (Build 8.3.4.295, Certara, Princeton, N.J., USA). All concentrations of each pharmacokinetic profile were considered for NCA because the values obtained were above the LOQ. Peak plasma concentration (Cmax) and time to peak plasma concentration (Tmax) were determined by visual inspection of the pharmacokinetic profiles. The apparent elimination rate constant (λz) was estimated from the terminal slope of the semilogarithmic concentration–time curve. The apparent elimination half-life (t1/2λz) was calculated as t1/2z = 0.693/λz. The area under the plasma concentration–time curve from time zero to the last experimental time (AUCt) with analyte concentrations above the LOQ, was calculated by the linear-log trapezoidal rule. The area from time zero to infinity (AUC0–∞) was calculated by adding to the AUCt value the extrapolated area calculated as the ratio between the predicted concentration (Ct) at the last sampling time with concentrations above the LOQ and λz. The mean residence time (MRT0–∞) was given by the ratio of the area under the first-moment curve (AUMC0–∞) to the area under the zero-moment curve (AUC0–∞). The ratio indicating the relative exposure of each metabolite with respect to hydroxytyrosol (AUC0–∞m/AUC0–∞) was also calculated for all of the metabolites. […]

[3] = 30 olives group (hydroxytyrosol 2.95 mg/kg oral), listed as hydroxytyrosol sulfate M1-a
[4] = 60 olives group (hydroxytyrosol 5.89 mg/kg oral), listed as hydroxytyrosol sulfate M1-a
[5] = both doses (30 and 60 olives groups)
[6] = 30 olives group (hydroxytyrosol 2.95 mg/kg oral), listed as hydroxytyrosol sulfate M1-b
[7] = 60 olives group (hydroxytyrosol 5.89 mg/kg oral), listed as hydroxytyrosol sulfate M1-b

## hydroxytyrosol sulfate
[1]; after phenolic extract from olive cake containing 10.35 mg/kg of hydroxytyrosol, ref Serra et al. 23
  share in rat plasma: 92%
[1]; oral 10 mg/kg of hydroxytyrosol to rats
  share represented by hydroxytyrosol sulfates: 60%
[1]; oral 100 mg/kg of hydroxytyrosol to rats
  share represented by hydroxytyrosol sulfates: 75%

## hydroxytyrosol sulfate [M1-a]
[2]; 30 olives group (3.85 g olives/kg, hydroxytyrosol 2.95 mg/kg oral), listed as hydroxytyrosol sulfate M1-a
  AUC0–∞: 4765 (3491, 6504)^a min·nmol/L
[2]; [3]
  Cmax/D: 0.00899 (0.00522, 0.01546)^a
  AUC0–∞/D: 0.90 (0.68, 1.23)^a
  AUCt/D: 0.82 (0.60, 1.11)^a
  Cl/F·fm (apparent clearance of metabolite): 4.02 (2.95, 5.48)^a L/min/kg
  MRT0–∞: 173 (121.9, 245.5)^a min
  Vdarea/F·fm (apparent volume of distribution of metabolite, terminal phase): 491 (190, 1264)^a L/kg
  Vss/F·fm (apparent steady-state volume of distribution of metabolite): 616 (339, 1120)^a L/kg
  t1/2λz (apparent elimination half-life): 130.1 (64.5, 262.2)^a min
  λz (apparent elimination rate constant): 0.0053 (0.0026, 0.011)^a 1/min
  Tmax: 45.5 (30, 120)^a min
  AUCt: 4321 (3152, 5924)^a min·nmol/L
[2]; 30 olives group: single oral 3.85 g destoned olives/kg (hydroxytyrosol 2.95 mg/kg), n = 6, listed as hydroxytyrosol sulfate M1-a
  Cmax: 0.0473 µM
[2]; 60 olives group (7.70 g olives/kg, hydroxytyrosol 5.89 mg/kg oral), listed as hydroxytyrosol sulfate M1-a
  AUC0–∞: 13133 (9812, 17577)^b min·nmol/L
[2]; [4]
  Cmax/D: 0.00872 (0.00562, 0.01354)^a
  AUC0–∞/D: 1.18 (0.84, 1.64)^a
  AUCt/D: 1.02 (0.75, 1.38)^a
  Cl/F·fm (apparent clearance of metabolite): 2.91 (2.17, 3,89)^a L/min/kg
  MRT0–∞: 188.3 (143.6, 246,9)^a min
  Vdarea/F·fm (apparent volume of distribution of metabolite, terminal phase): 479 (290, 790)^a L/kg
  Vss/F·fm (apparent steady-state volume of distribution of metabolite): 548 (380, 789)^a L/kg
  t1/2λz (apparent elimination half-life): 129.4 (83.0, 201.6)^a min
  λz (apparent elimination rate constant): 0.0054 (0.0034, 0.0083)^a 1/min
  Tmax: 36 (30, 42)^a min
  AUCt: 11376 (8674, 14919)^b min·nmol/L
[2]; 60 olives group: single oral 7.70 g destoned olives/kg (hydroxytyrosol 5.89 mg/kg), n = 7, listed as hydroxytyrosol sulfate M1-a
  Cmax: 0.0973 µM
[2]; [5]
  AUC ratio of metabolite versus parent hydroxytyrosol (AUC0–∞m/AUC0–∞): around 1.5
  Vss/F·fm and Vdarea/F·fm: approximately 500 L/kg
  half-life (t1/2λz): approximately 2 h
  mean residence time (MRT0–∞): around 3 h
[2]
  percentage of the AUC of each compound divided by the AUC of the sum of all of them: 12%

## hydroxytyrosol sulfate [M1-b]
[2]; 30 olives group (3.85 g olives/kg, hydroxytyrosol 2.95 mg/kg oral), listed as hydroxytyrosol sulfate M1-b
  AUC0–∞: 28084 (20399, 38664)^a min·nmol/L
[2]; [6]
  Cmax/D: 0.0582 (0.0343, 0.0985)^a
  AUC0–∞/D: 5.33 (3.89, 7.31)^a
  AUCt/D: 5.11 (3.78, 6.90)^a
  Cl/F·fm (apparent clearance of metabolite): 0.68 (0.49, 0.94)^a L/min/kg
  MRT0–∞: 141.4 (118.1, 169.3)^a min
  Vdarea/F·fm (apparent volume of distribution of metabolite, terminal phase): 85.0 (57.2, 126)^a L/kg
  Vss/F·fm (apparent steady-state volume of distribution of metabolite): 96.4 (62.6, 148)^a L/kg
  t1/2λz (apparent elimination half-life): 86.4 (67.7, 110)^a min
  λz (apparent elimination rate constant): 0.0080 (0.0063, 0.01024)^a 1/min
  Tmax: 30.50 (30,120)^a min
  AUCt: 26907 (19824, 36520)^a min·nmol/L
[2]; 30 olives group: single oral 3.85 g destoned olives/kg (hydroxytyrosol 2.95 mg/kg), n = 6, listed as hydroxytyrosol sulfate M1-b
  Cmax: 0.306 µM
[2]; 60 olives group (7.70 g olives/kg, hydroxytyrosol 5.89 mg/kg oral), listed as hydroxytyrosol sulfate M1-b
  AUC0–∞: 80006 (65787, 97299)^b min·nmol/L
[2]; [7]
  Cmax/D: 0.0491 (0.0333, 0.0726)^a
  AUC0–∞/D: 7.17 (5.62, 9.14)^a
  AUCt/D: 6.05 (4.76, 7.70)^a
  Cl/F·fm (apparent clearance of metabolite): 0.48 (0.39, 0.58)^a L/min/kg
  MRT0–∞: 198.8 (139.0, 284.3)^a min
  Vdarea/F·fm (apparent volume of distribution of metabolite, terminal phase): 75.1 (45.7, 123)^a L/kg
  Vss/F·fm (apparent steady-state volume of distribution of metabolite): 83.5 (61.6, 112.9)^a L/kg
  t1/2λz (apparent elimination half-life): 129.3 (74.1, 225.6)^a min
  λz (apparent elimination rate constant): 0.0054 (0.0031, 0.0094)^a 1/min
  Tmax: 38 (30, 100)^a min
  AUCt: 67548 (53591, 85140)^b min·nmol/L
[2]; 60 olives group: single oral 7.70 g destoned olives/kg (hydroxytyrosol 5.89 mg/kg), n = 7, listed as hydroxytyrosol sulfate M1-b
  Cmax: 0.548 µM
[2]; [5]
  Vss/F·fm and Vdarea/F·fm: ~90 L/kg
  half-life (t1/2λz): approximately 2 h
  mean residence time (MRT0–∞): around 3 h
[2]
  percentage of the AUC of each compound divided by the AUC of the sum of all of them: approximately 73%

— PMC10835732, “Pharmacokinetics of Hydroxytyrosol and Its Sulfate and Glucuronide Metabolites after the Oral Administration of Table Olives to Sprague-Dawley Rats” (Journal of Agricultural and Food Chemistry, 2024)
